Type in all cases: cell-based
Assay [1] deals with NCI-N87 (HER2-positive gastric cancer cell line). Put plainly: antiproliferative effect, NCI-N87. As to conditions: Homo sapiens, NCI-N87; 72 hours; HER2-positive. How it is done: (§1) The antiproliferative effects were measured after treating Compounds 1 to 22 for 72 hours on HCT15 (HER2-positive colorectal cancer cell line), NCI-N87 (HER2-positive gastric cancer cell line), T47D (HER2-negative breast cancer cell line), and HeLa (HER2-negative cervical cancer cell line). As a result, strong antiproliferative effects were generally observed in the NCI-N87 cell line (Table 2).
(§2) The antiproliferative effects of the candidate compound, resulting from HER2 inhibition, were evaluated. Specifically, to confirm the anticancer effects of the candidate compound, cancer cells were seeded at a density of 10^4 cells/well in a 96-well cell culture plate for 20 hours. The cells were starved in serum-free media for 4 hours, followed by replacement with media containing the compound at specified concentrations. The cells were then incubated for 72 hours under conditions of 5% CO2 at 37 °C. Cell viability was determined by adding 5 μL of EZ-CytoX to each well and measuring absorbance at 450 nm. The measurements were performed using an ELISA Microplate Reader (VersaMax, Molecular Devices).

Assay [2] has as its system HeLa (HER2-negative cervical cancer cell line). Put plainly: antiproliferative effect, HeLa. As to conditions: Homo sapiens, 72 hours. As to the method: as §1, §2
Assay [3] relates to T47D (HER2-negative breast cancer cell line). Description: antiproliferative effect, T47D. As to conditions: Homo sapiens, 72 hours. How it is done:
as §1, §2

Assay [4] relates to HCT15 (HER2-positive colorectal cancer cell line). Put plainly: antiproliferative effect, HCT15. As to conditions: Homo sapiens, HCT-15, 72 hours. How it is done: as §1, §2
Assay [5] deals with T1, ELF3-MED23 protein-protein interaction (Homo sapiens, UniProt Q9ULK4).
T1 construct: followed by the addition of either the candidate compound or MED23 protein constructs; endogenous in cells; host or cells: 293T kidney cells (MED23 endogenous; GAL4-ELF3 transfected)
T1 sequence (Q9ULK4 1-1368): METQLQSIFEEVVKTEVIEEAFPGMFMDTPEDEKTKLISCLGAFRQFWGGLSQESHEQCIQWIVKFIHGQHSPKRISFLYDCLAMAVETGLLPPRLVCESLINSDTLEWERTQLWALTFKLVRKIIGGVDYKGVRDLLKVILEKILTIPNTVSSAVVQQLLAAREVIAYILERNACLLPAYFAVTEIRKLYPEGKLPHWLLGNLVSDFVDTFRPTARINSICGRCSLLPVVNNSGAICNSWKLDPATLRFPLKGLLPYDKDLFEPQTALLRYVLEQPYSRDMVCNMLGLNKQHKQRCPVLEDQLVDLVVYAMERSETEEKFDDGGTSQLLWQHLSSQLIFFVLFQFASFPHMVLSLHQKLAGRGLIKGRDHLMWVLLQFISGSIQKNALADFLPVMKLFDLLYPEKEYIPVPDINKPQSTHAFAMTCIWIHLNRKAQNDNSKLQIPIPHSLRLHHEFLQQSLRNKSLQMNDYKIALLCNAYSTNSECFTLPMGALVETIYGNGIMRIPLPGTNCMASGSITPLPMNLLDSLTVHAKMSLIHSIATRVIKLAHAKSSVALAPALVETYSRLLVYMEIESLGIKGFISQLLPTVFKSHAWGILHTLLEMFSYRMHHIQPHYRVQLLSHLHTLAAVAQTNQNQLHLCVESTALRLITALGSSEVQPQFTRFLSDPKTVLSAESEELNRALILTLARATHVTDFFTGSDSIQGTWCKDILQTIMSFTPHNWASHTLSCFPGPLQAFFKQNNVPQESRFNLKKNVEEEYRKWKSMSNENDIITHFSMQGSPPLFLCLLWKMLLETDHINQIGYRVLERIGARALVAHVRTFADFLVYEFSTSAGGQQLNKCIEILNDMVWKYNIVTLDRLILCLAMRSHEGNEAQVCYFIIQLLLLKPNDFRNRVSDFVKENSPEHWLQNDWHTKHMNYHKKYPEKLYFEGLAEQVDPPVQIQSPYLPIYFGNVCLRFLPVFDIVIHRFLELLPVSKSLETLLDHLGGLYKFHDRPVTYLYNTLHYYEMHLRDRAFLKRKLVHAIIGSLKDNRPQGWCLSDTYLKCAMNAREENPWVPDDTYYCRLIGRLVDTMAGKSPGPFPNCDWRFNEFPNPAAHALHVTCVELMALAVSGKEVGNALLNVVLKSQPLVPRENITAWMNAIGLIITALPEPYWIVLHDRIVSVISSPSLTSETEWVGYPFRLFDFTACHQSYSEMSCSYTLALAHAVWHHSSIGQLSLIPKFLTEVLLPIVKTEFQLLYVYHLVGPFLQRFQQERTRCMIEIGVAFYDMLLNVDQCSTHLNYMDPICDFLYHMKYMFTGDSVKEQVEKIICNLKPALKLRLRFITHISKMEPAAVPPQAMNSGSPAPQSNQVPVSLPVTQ
Put plainly: SEAP reporter assay, ELF3-MED23 PPI inhibition (293T kidney cells). To be noted: HEK-293T; 10 μM. How it is done: To verify whether the D400 and H449 residues play a critical role in the ELF3-MED23 protein-protein interaction, a SEAP assay was performed. Specifically, 293T kidney cells were seeded at a density of 5×10^3 cells/well in a 96-well microplate (SPL, Korea) and cultured overnight. Subsequently, the cells were co-transfected with 100 ng of each plasmid using transfection-optimized medium (Welgene, Korea). The plasmids used included the SEAP reporter gene (pG5IL2SX) and GAL4-ELF3 expression vector (pBJ GAL4-ELF3). For transfection, the cells were incubated with WelFectQ (Welgene, Korea) for 3 hours, followed by the addition of either the candidate compound or MED23 protein constructs (pcDNA MED23^WT, K397A, D400A, H449G, and D400A/H449G). The treated cells were incubated for 12 hours. The candidate compound was added in an incubator at 5% CO2 and 37 °C, and the plate was incubated at 65 °C for 3 hours to inactivate all enzymes except SEAP (Secreted Alkaline Phosphatase). A mixture comprising 100 μL of substrate solution prepared with 1.19 μL of 0.1 M 4-methylumbelliferyl phosphate (Sigma, USA), 25 μL of inactivated medium, and 75 μL of double-distilled water was added, followed by the addition of 98.81 μL of 2 M diethanolamine (pH 10, Sigma, USA). The plate was incubated overnight at 37 °C. Subsequently, the fluorescence intensity was measured using a fluorometer (SPECTRAmax […], Molecular Devices, USA) at an excitation wavelength of 360 nm and an emission wavelength of 440 nm.
To further elaborate on the above findings, small molecule compounds that could affect the ELF3-MED23 PPI were designed and synthesized. Specifically, non-essential side chains were removed from gefitnib, and compounds were designed to include both hydrogen bond donors and acceptors for the D400 and H449 residues of MED23, respectively (FIG. 4A). Specifically, chalcones and pyrazolines were selected as core scaffolds, and 25 compounds (11 chalcones and 14 pyrazoline-based compounds) were prepared. The ELF3-MED23 PPI inhibitory activity of all prepared compounds was measured using a SEAP assay.

SMILES strings stand for the structures.

What is called IC50 is the midpoint of a concentration-inhibition curve. The low end stands for higher potency, the high end for lower potency. As a reminder, the inhibition is how much of the control response was suppressed. Read a high inhibition as strong suppression.

For `O=C(/C=C/c1ccco1)c1cccc(O)c1` [Compound 1, 3-Furan-2-yl-1-(3-hydroxyphenyl)-propenone], the half-maximal inhibitory concentration (IC50) in assay [1] stood at 13.5 ± 0.29 µM; in assay [2] it was 19.5 ± 0.04 µM; in assay [3] it was 8.48 ± 0.02 µM; in assay [4], 29.66 ± 0.14 µM. In assay [5], this molecule showed an inhibition at 10 µM of 86%.
Regarding `COc1ccc(/C=C/C(=O)c2cccc(O)c2)cc1` [Compound 2, 1-(3-Hydroxyphenyl)-3-(4-methoxyphenyl)-propenone], the IC50 came to 10.7 ± 0.31 µM in assay [1], 9.85 ± 0.37 µM in assay [2], 18.9 ± 0.2 µM in assay [3] and 8.51 ± 0.01 µM in assay [4]. The molecule also yielded an inhibition at 10 µM in assay [5] of 41%.
Taken in the same sequence, the figures for `COc1ccc(/C=C/C(=O)c2cccc(O)c2)c2ccccc12` [Compound 3, 1-(3-Hydroxyphenyl)-3-(4-methoxynaphthalen-1-yl)-propenone] were 3.45 ± 0.05 µM, 9.73 ± 0.04 µM, 1.21 ± 0.02 µM, 7.64 ± 0.09 µM and 70%.
Taken in the same sequence, the figures for `O=C(/C=C/c1ccc(Cl)cc1)c1cccc(O)c1` [Compound 4, 3-(4-Chlorophenyl)-1-(3-hydroxyphenyl)-propenone] were 4.82 ± 0.1 µM, 25.64 ± 0.09 µM, 17.57 ± 0.13 µM, 12 ± 0.17 µM and 80%.
Taken in the same sequence, the figures for `O=C(/C=C/c1ccc(O)cc1)c1cccc(O)c1` [Compound 5, 3-(4-Hydroxyphenyl)-1-(3-hydroxyphenyl)-propenone] were 17.82 ± 0.17 µM, 30.02 ± 0.18 µM, 9.04 ± 0.07 µM, 8.97 ± 0.17 µM and 60%.
Regarding `COc1ccc(/C=C/C(=O)c2ccccc2O)cc1` [Compound 6, 1-(2-Hydroxyphenyl)-3-(4-methoxyphenyl)-propenone], the half-maximal inhibitory concentration (IC50) was 44.9 ± 0.8 µM in assay [1], above 50 µM in assay [2], above 50 µM in assay [3] and above 50 µM in assay [4]. The same molecule displayed an inhibition at 10 µM in assay [5] of 90%.
As to `COc1ccc(/C=C/C(=O)c2ccccc2O)c2ccccc12` [Compound 7, 1-(2-Hydroxyphenyl)-3-(4-methoxynaphthalen-1-yl)-propenone], the IC50 in assay [1] is 11.4 ± 0.12 µM; in assay [2] it was 16.13 ± 0.08 µM; in assay [3], 15.56 ± 0.15 µM; in assay [4], 14.18 ± 0.05 µM. The inhibition at 10 µM in assay [5] was determined as 80%.
The like results for `O=C(/C=C/c1ccco1)c1ccccc1O` [Compound 8, 3-Furan-2-yl-1-(2-hydroxyphenyl)-propenone] were, in that order, above 50 µM, 42.19 ± 0.01 µM, above 50 µM, above 50 µM and 50%.
Taken in the same sequence, the figures for `O=C(/C=C/c1ccc(O)cc1)c1ccccc1O` [Compound 9, 3-(4-Hydroxyphenyl)-1-(2-hydroxyphenyl)-propenone] were above 50 µM, above 50 µM, 27.89 ± 0.06 µM, above 50 µM and 50%.
Consider `O=C(/C=C/c1ccc(Cl)cc1)c1ccccc1O` [Compound 10, 3-(4-Chlorophenyl)-1-(2-hydroxyphenyl)-propenone], for which the concentration for half-maximal inhibition (IC50) in assay [1] was 14.38 ± 0.06 µM; in assay [2], 5.54 ± 0.21 µM; in assay [3], 8.96 ± 0.02 µM; in assay [4], 14.36 ± 0.12 µM. The molecule further displayed an inhibition at 10 µM in assay [5] of 80%.
Taken in the same sequence, the figures for `O=C(/C=C/c1cccs1)c1ccccc1O` [Compound 11, 1-(2-Hydroxyphenyl)-3-thiophen-2-yl-propenone] were 47.76 ± 0.22 µM, 44.31 ± 0.11 µM, above 50 µM, above 50 µM and 50%.
Regarding `CC(=O)N1N=C(c2cccc(O)c2)CC1c1ccco1` (centres unmarked) [Compound 12, 1-[5-Furan-2-yl-3-(3-hydroxyphenyl)-4,5-dihydropyrazol-1-yl]-ethanone], the half-maximal inhibitory concentration (IC50) in assay [1], in assay [2], in assay [3] and in assay [4] was above 50 µM each time. For the same molecule, 10 µM produced 58% inhibition in assay [5].
Consider `COc1ccc(C2CC(c3cccc(O)c3)=NN2C(C)=O)cc1` (centres unmarked) [Compound 13, 1-[3-(3-Hydroxyphenyl)-5-(4-methoxyphenyl)-4,5-dihydropyrazol-1-yl]-ethanone], for which the IC50 in assay [1], in assay [2], in assay [3] and in assay [4] was above 50 µM in each case. For the same molecule, the inhibition at 10 µM in assay [5] was determined as 58%.
`CCC(=O)N1N=C(c2cccc(O)c2)CC1c1ccc(OC)cc1` (centres unmarked) [Compound 23, 1-[3-(3-Hydroxyphenyl)-5-(4-methoxyphenyl)-4,5-dihydropyrazol-1-yl]-propan-1-one] came in with an inhibition at 10 µM in assay [5] of 87%.
Molecule `CCC(=O)N1N=C(c2cccc(O)c2)CC1c1cccs1` (centres unmarked) [Compound 24, 1-[3-(3-Hydroxyphenyl)-5-thiophen-2-yl-4,5-dihydropyrazol-1-yl]-propan-1-one] returned an inhibition at 10 µM in assay [5] of 34%.
On the same count and under the same terms, next, `CCC(=O)N1N=C(c2cccc(O)c2)CC1c1ccc(Cl)cc1` (centres unmarked) [Compound 25, 1-[5-(4-Chlorophenyl)-3-(3-hydroxyphenyl)-4,5-dihydropyrazol-1-yl]-propan-1-one]: 42%.
